# Measured values taken from US20130109682A1, “CYCLIC ETHER COMPOUNDS USEFUL AS KINASE INHIBITORS” (NOVARTIS AG, priority 2010, published 2013).
# pIC50: −log10 of the molar value.
# Legend:
# PIM2 = PIM2 (Homo sapiens, UniProt Q9P1W9); assay: Pim 2 AlphaScreen assay (high ATP); type: biochemical; conditions: read-out: Pim2 IC50
# Procedure, shortened: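 IC50 values rest on detection of phosphorylated Bad peptide: after a ~2 h kinase reaction, an EDTA stop buffer containing anti-phospho Ser/Thr antibody, Protein A and streptavidin AlphaScreen beads was added and read after overnight dark incubation. ATP was high (11-125× Km), with 2.5% DMSO in pH 7.5 Hepes buffer containing MgCl2, BSA, Tween-20 and DTT.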
# KDR kinase = KDR kinase (Homo sapiens, UniProt P35968); assay: KDR kinase inhibition assay (LanthaScreen TR-FRET); type: biochemical; conditions: TR-FRET assay
# KDR kinase, sequence (P35968 20-1356): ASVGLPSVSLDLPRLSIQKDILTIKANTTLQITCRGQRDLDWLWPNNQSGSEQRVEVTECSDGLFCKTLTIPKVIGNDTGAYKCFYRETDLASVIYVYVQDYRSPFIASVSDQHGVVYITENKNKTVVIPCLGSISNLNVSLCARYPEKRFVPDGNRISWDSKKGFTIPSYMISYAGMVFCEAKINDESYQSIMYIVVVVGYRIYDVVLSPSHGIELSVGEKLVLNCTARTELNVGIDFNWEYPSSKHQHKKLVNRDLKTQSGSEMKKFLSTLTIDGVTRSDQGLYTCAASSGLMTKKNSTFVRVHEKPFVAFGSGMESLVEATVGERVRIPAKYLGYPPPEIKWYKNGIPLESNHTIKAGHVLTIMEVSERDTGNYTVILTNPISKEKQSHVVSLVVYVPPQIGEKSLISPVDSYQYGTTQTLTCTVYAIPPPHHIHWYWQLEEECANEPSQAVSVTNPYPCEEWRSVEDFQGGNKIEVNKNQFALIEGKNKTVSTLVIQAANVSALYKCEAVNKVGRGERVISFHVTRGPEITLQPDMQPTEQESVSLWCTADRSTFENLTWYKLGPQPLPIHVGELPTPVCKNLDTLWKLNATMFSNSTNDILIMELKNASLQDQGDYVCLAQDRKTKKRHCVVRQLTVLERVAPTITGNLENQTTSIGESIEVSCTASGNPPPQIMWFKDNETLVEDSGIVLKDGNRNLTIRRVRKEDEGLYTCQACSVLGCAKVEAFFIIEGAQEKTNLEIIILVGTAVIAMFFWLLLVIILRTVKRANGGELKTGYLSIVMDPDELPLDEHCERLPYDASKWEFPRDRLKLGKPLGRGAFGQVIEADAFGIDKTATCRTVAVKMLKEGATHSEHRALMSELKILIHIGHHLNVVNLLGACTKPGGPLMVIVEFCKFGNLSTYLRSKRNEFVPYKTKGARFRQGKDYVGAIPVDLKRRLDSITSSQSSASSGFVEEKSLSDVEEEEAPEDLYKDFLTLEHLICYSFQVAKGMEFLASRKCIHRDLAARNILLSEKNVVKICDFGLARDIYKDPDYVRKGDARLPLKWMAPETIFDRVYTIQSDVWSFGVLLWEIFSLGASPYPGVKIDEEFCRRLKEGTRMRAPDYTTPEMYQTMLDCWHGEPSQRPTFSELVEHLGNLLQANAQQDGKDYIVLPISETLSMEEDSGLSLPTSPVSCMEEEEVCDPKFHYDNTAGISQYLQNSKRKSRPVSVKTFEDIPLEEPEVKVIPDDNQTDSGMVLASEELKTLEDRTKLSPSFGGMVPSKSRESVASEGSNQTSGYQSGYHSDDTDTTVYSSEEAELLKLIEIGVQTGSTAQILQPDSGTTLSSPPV
# Experimental: KDR Kinase Inhibition Assay
# LanthaScreen™ is the detection of Time-Resolved Fluorescence Resonance Energy Transfer (TR-FRET) using lanthanide chelates to measure interactions between various binding partners. The application of TR-FRET to assay kinase activity was first described by Mathis (1995). A TR-FRET assay was used to measure KDR kinase inhibitory activity. The assay panel was run on a Biomek FX liquid handling workstations. To the assay plates containing 50 nL compound or control solutions, 4.5 μL of buffer A (50 mM TRIS-HCl pH 7.4, 2 mM DTT, 0.02% Tween 20, 0.02 mM Na3VO4, H2O nanpure) including a generic concentration of ATP (2 μM f.c.) was added per well, followed by 4.5 μL of buffer B (4 uM ATP in Buffer A) including a generic concentration of polyEAY (50 nM f.c.), KDR kinase, and divalent cations. Final concentration of kinase and cations were: [KDR kinase]=0.38 nM, [Mg]=10 mM, [Ca]=1 mM. After 1 hour of incubation the kinase reactions were stopped by the addition of 4.5 μL of stop solution D (50 mM EDTA, 20 mM TRIS-HCl pH 7.4, 0.04% NP-40) immediately followed by 4.5 μL of buffer A (50 mM TRIS-HCl pH 7.4, 2 mM DTT, 0.02% Tween 20, 0.02 mM Na3VO4, H2O nanpure) including the Tb-labeled P-20 antibody to give a total detection volume of 18 μL. After an incubation time of 45 min in the dark, the plates were transferred into the Pherastar fluorescence reader for counting. The effect of compound on the enzymatic activity was obtained from the linear progress curves and determined from one reading (end point measurement).
# PIM2, sequence (Q9P1W9 whole entry): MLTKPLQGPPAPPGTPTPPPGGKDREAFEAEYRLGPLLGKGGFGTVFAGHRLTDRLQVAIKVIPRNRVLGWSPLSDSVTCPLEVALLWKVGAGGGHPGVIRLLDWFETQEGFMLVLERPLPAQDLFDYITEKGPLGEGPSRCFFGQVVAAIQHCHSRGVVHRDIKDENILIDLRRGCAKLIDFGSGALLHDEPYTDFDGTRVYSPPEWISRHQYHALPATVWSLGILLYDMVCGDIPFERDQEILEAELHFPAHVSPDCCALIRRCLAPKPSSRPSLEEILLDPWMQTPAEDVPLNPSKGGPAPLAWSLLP
Structure (SMILES),pIC50 (PIM2),pIC50 (KDR kinase)
"Nc1ncc(-c2ccccc2)nc1C(=O)Nc1cnccc1[C@H]1C[C@@H](N)[C@@]2(O)CCC[C@H]2O1 [Example 183, 3-amino-N-(4-((2R,4R,4aS,7aR)-4-amino-4a-hydroxyoctahydrocyclopenta[b]pyran-2-yl)pyridin-3-yl)-6-phenylpyrazine-2-carboxamide]",7.12,8.17
"Nc1ncc(-c2ccccc2)nc1C(=O)Nc1cnccc1[C@@H]1C[C@H](N)[C@]2(O)CCC[C@@H]2O1 [Example 185, 3-amino-N-(4-((2S,4S,4aR,7aS)-4-amino-4a-hydroxyoctahydrocyclopenta[b]pyran-2-yl)pyridin-3-yl)-6-phenylpyrazine-2-carboxamide]",5.19,5.70
"CC[C@]1(O)[C@H](N)C[C@H](c2ccncc2NC(=O)c2nc(-c3ccccc3)cnc2N)O[C@@H]1C [Example 187, 3-amino-N-(4-((2R,4R,5S,6R)-4-amino-5-ethyl-5-hydroxy-6-methyltetrahydro-2H-pyran-2-yl)pyridin-3-yl)-6-phenylpyrazine-2-carboxamide]",7.06,7.38
"CC[C@]1(O)[C@H](C)O[C@H](c2ccncc2NC(=O)c2nc(-c3ccccc3)cnc2N)C[C@@H]1N [Example 189, 3-amino-N-(4-((2S,4S,5R,6S)-4-amino-5-ethyl-5-hydroxy-6-methyltetrahydro-2H-pyran-2-yl)pyridin-3-yl)-6-phenylpyrazine-2-carboxamide]",4.60,5.85
"Nc1ncc(-c2ccccc2)nc1C(=O)Nc1cnccc1[C@H]1C[C@@H](N)[C@@]2(O)CCCC[C@H]2O1 [Example 197, 3-amino-N-(4-((2R,4R,4aS,8aR)-4-amino-4a-hydroxyoctahydro-2H-chromen-2-yl)pyridin-3-yl)-6-phenylpyrazine-2-carboxamide]",7.05,7.40
"Nc1ncc(-c2ccccc2)nc1C(=O)Nc1cnccc1[C@H]1C[C@@H](N)[C@H]2CCC[C@H]2O1 [Example 199, 3-amino-N-(4-((2R,4R,4aR,7aR)-4-aminooctahydrocyclopenta[b]pyran-2-yl)pyridin-3-yl)-6-phenylpyrazine-2-carboxamide]",6.99,7.21
"CC(C)(C)[C@@H]1O[C@H](c2ccncc2NC(=O)c2nc(-c3ccccc3)cnc2N)C[C@@H](N)[C@H]1O [Example 227, 3-amino-N-(4-((2S,4R,5R,6S)-4-amino-6-tert-butyl-5-hydroxytetrahydro-2H-pyran-2-yl)pyridin-3-yl)-6-phenylpyrazine-2-carboxamide]",6.26,5.77
"C[C@H]1O[C@@H](c2ccncc2NC(=O)c2nc(-c3ccccc3)cnc2N)C[C@@H](N)[C@]1(C)O [Example 228, 3-amino-N-(4-((2R,4R,5S,6R)-4-amino-5-hydroxy-5,6-dimethyltetrahydro-2H-pyran-2-yl)pyridin-3-yl)-6-phenylpyrazine-2-carboxamide]",6.92,7.42
"C[C@@H]1O[C@H](c2ccncc2NC(=O)c2nc(-c3ccccc3)cnc2N)C[C@H](N)[C@@]1(C)O [Example 229, 3-amino-N-(4-((2S,4S,5R,6S)-4-amino-5-hydroxy-5,6-dimethyltetrahydro-2H-pyran-2-yl)pyridin-3-yl)-6-phenylpyrazine-2-carboxamide]",5.48,6.10
"Nc1ncc(-c2ccccc2)nc1C(=O)Nc1cnccc1[C@@H]1C[C@H](N)[C@@H]2CCC[C@@H]2O1 [Example 233, 3-amino-N-(4-((2S,4S,4aS,7aS)-4-aminooctahydrocyclopenta[b]pyran-2-yl)pyridin-3-yl)-6-phenylpyrazine-2-carboxamide]",5.29,5.52
"Nc1ncc(-c2ccccc2)nc1C(=O)Nc1cnccc1[C@@H]1C[C@H](N)[C@]2(O)CCCC[C@@H]2O1 [Example 243, 3-amino-N-(4-((2S,4S,4aR,8aS)-4-amino-4a-hydroxyoctahydro-2H-chromen-2-yl)pyridin-3-yl)-6-phenylpyrazine-2-carboxamide]",,5.08
